# According to patent publication US12171755B2, “PAPD5 inhibitors and methods of use thereof” (Children's Medical Center Corporation, priority 2017, dated 2024):
# Target: T1, PAPD5 (Homo sapiens, UniProt Q8NDF8)
# T1 construct: made in house
# Assay: High-throughput luminescence (KinaseGlo) RNA polyadenylation assay, ATP utilization by recombinant PAPD5
# Format: biochemical
# Conditions: Table 4 (entries of Table 5), ratio of luminescence with inhibitor to DMSO; for Fold-change determined at compound concentration 33 μM: 33 μM compound; for Fold-change determined at compound concentration 100 μM: 100 μM compound, higher = higher inhibition
# Procedure: Optimal conditions for an in vitro RNA polyadenylation assay using recombinant PAPD5, ATP and an oligonucleotide substrate were identified. The HTS assay involved ATP utilization by PAPD5, which reads out as a decreased luminescence signal produced by luciferase (KinaseGlo, Promega, Madison, WI).
# 100 nl of compound dissolved in DMSO was transferred to each well of the assay plate via pin transfer. For negative control wells, DMSO alone was added. Plates were gently vortexed for 5 seconds, then incubated for 2 hours at room temperature.
# After 2 hours, 5 ul of luciferase (Promega KinaseGlo, Madison, WI) was added using a MultiDrop Combi (Thermo Fisher Scientific, Waltham, MA). The mixture was gently vortexed for 5 seconds and incubated for 10 minutes at room temperature. Plates were spun for 1 minute prior to luminescence measurements. Luminescent measurements were quantitated using a PerkinElmer EnVision™ plate reader.
# ˜100,000 compounds from various libraries at the ICCB-Longwood were screened in this manner in duplicate.
# The fold change was the ratio of luminescence from a sample with inhibitor compared to that with DMSO. Thus, a higher number indicates higher inhibition.
# T1 sequence (Q8NDF8 68-698 isoform Q8NDF8-5): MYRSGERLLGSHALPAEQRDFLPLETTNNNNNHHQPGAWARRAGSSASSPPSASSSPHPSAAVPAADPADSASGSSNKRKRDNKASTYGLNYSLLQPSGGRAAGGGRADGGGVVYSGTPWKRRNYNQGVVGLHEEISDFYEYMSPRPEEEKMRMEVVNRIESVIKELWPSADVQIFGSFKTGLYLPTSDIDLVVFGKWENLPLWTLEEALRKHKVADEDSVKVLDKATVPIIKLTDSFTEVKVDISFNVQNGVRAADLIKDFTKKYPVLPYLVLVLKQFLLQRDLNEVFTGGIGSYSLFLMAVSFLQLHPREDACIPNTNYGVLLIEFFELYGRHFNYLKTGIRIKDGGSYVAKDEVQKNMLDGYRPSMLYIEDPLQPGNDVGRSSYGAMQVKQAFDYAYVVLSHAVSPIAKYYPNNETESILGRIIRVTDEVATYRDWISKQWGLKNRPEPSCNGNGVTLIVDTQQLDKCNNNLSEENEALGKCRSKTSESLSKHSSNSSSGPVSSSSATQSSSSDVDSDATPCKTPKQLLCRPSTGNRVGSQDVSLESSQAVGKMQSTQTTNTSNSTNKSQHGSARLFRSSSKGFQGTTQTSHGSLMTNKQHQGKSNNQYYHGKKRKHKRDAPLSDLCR
structure (smiles),measurement,setting,value
"COc1c2[nH]c3occc3c(OC)c-2ccc1=O [Entry 91, 4,8-dimethoxy-9H-furo[2,3-b]quinolin-7-one]",Fold-change determined at compound concentration 33 μM,,1.197
same,Fold-change determined at compound concentration 100 μM,,1.537
"COc1c2ccoc2nc2c(OC)cccc12 [Entry 92, 4,8-dimethoxyfuro[2,3-b]quinoline]",Fold-change determined at compound concentration 33 μM,,1.175
same,Fold-change determined at compound concentration 100 μM,,1.478
"Cc1ccc2cc(-c3noc(CCC(=O)Nc4nccs4)n3)c(O)nc2c1 [Entry 94, 3-[3-(2-hydroxy-7-methylquinolin-3-yl)-1,2,4-oxadiazol-5-yl]-N-1,3-thiazol-2-ylpropanamide]",Fold-change determined at compound concentration 33 μM,,1.294
same,Fold-change determined at compound concentration 100 μM,,1.926
"Cc1ccc(NC(=O)c2ccc3c(O)c(S(=O)(=O)c4ccc(Cl)cc4)c(=O)[nH]c3c2)cc1 [Entry 95, 3-(4-chlorophenyl)sulfonyl-4-hydroxy-N-(4-methylphenyl)-2-oxo-1H-quinoline-7-carboxamide]",Fold-change determined at compound concentration 33 μM,,1.156
same,Fold-change determined at compound concentration 100 μM,,1.228
"Cc1ccc(C)c(NC(=O)c2ccc3c(O)c(S(=O)(=O)c4ccc(Cl)cc4)c(O)nc3c2)c1 [Entry 96, (Z)-3-((4-chlorophenyl)sulfonyl)-N-(2,5-dimethylphenyl)-2,4-dihydroxyquinoline-7-carbimidic acid]",Fold-change determined at compound concentration 33 μM,,1.184
same,Fold-change determined at compound concentration 100 μM,,1.23
"O=C(CSc1nc(=O)c2ccccc2[nH]1)NCc1nc2ccccc2[nH]1 [Entry 97, N-(1H-benzimidazol-2-ylmethyl)-2-[(4-oxo-1H-quinazolin-2-yl)sulfanyl]acetamide]",Fold-change determined at compound concentration 33 μM,,1.171
same,Fold-change determined at compound concentration 100 μM,,1.403
"O=C(O)C1Nc2ccc(Cl)cc2C2C=CCC12 (stereo not drawn) [Entry 98, 8-Chloro-3a,4,5,9b-tetrahydro-3H-cyclopenta[c]quinoline-4-carboxylic acid]",Fold-change determined at compound concentration 33 μM,,1.97
same,Fold-change determined at compound concentration 100 μM,,2.765
"COc1ccc(Br)cc1[C@@H]1Nc2ccc(C(=O)O)cc2[C@@H]2C=CC[C@@H]21 [Entry 99, (3aS,4R,9bR)-4-(5-bromo-2-methoxyphenyl)-3a,4,5,9b-tetrahydro-3H-cyclopenta[c]quinoline-8-carboxylic acid]",Fold-change determined at compound concentration 33 μM,,1.233
same,Fold-change determined at compound concentration 100 μM,,1.91
"COc1ccc(NS(=O)(=O)c2ccc3c(c2)[C@H]2C=CC[C@H]2[C@@H](c2ccc(C(=O)O)cc2)N3)cc1 [Entry 100, 4-[(3aR,4S,9bS)-8-[(4-methoxyphenyl)sulfamoyl]-3a,4,5,9b-tetrahydro-3H-cyclopenta[c]quinolin-4-yl]benzoic acid]",Fold-change determined at compound concentration 33 μM,,1.315
same,Fold-change determined at compound concentration 100 μM,,2.297
"CCOc1cccc2c1N[C@@H](c1ccc(C(=O)O)cc1)[C@H]1CC=C[C@@H]21 [Entry 101, 4-[(3aS,4R,9bR)-6-ethoxy-3a,4,5,9b-tetrahydro-3H-cyclopenta[c]quinolin-4-yl]benzoic acid]",Fold-change determined at compound concentration 33 μM,,1.265
same,Fold-change determined at compound concentration 100 μM,,2.042
"Cc1cc(C)c2c(=O)cc(CSc3nnc(-c4ccccc4)n3C)[nH]c2c1 [Entry 102, 5,7-dimethyl-2-[(4-methyl-5-phenyl-1,2,4-triazol-3-yl)sulfanylmethyl]-1H-quinolin-4-one]",Fold-change determined at compound concentration 33 μM,,1.066
same,Fold-change determined at compound concentration 100 μM,,1.268
"CCn1cc(C(=O)O)c(=O)c2cc(F)c(N3CCN(C)CC3)cc21 [Entry 103, 1-ethyl-6-fluoro-7-(4-methylpiperazin-1-yl)-4-oxo-1,4-dihydroquinoline-3-carboxylic acid]",Fold-change determined at compound concentration 33 μM,,1.04
same,Fold-change determined at compound concentration 100 μM,,1.218
"O=c1c(S(=O)(=O)c2cccc(F)c2)c[nH]c2c(F)c(Cl)ccc12 [Entry 104, 7-chloro-8-fluoro-3-(3-fluorophenyl)sulfonyl-1H-quinolin-4-one]",Fold-change determined at compound concentration 33 μM,,1.048
same,Fold-change determined at compound concentration 100 μM,,1.235
"O=c1c(S(=O)(=O)c2cccc(F)c2)c[nH]c2c(F)ccc(Cl)c12 [Entry 105, 5-chloro-8-fluoro-3-(3-fluorophenyl)sulfonyl-1H-quinolin-4-one]",Fold-change determined at compound concentration 33 μM,,1.16
same,Fold-change determined at compound concentration 100 μM,,1.333
"Cc1cc(C)c2c(=O)cc(CSc3nnc(-c4cccc(F)c4)n3C)[nH]c2c1 [Entry 106, 2-[[5-(3-fluorophenyl)-4-methyl-1,2,4-triazol-3-yl]sulfanylmethyl]-5,7-dimethyl-1H-quinolin-4-one]",Fold-change determined at compound concentration 33 μM,,1.218
same,Fold-change determined at compound concentration 100 μM,,1.522
"Cc1ccc2c(=O)cc(CSc3ncn[nH]3)[nH]c2c1C [Entry 107, 7,8-dimethyl-2-(1H-1,2,4-triazol-5-ylsulfanylmethyl)-1H-quinolin-4-one]",Fold-change determined at compound concentration 33 μM,,1.319
same,Fold-change determined at compound concentration 100 μM,,1.883
"CN(C)S(=O)(=O)c1ccc2c(c1)c(C(=O)n1ccnc1)cn2C [Entry 108, 3-(I-Imidazole-1-carbonyl)-N,N,1-trimethylindole-5-sulfonamide]",Fold-change determined at compound concentration 33 μM,,1.256
same,Fold-change determined at compound concentration 100 μM,,1.547
"COc1ccc(OC)c(NC(=O)Cc2c(C(=O)O)[nH]c3ccc(Cl)cc23)c1 [Entry 109, 5-chloro-3-[2-(2,5-dimethoxyanilino)-2-oxoethyl]-1H-indole-2-carboxylic acid]",Fold-change determined at compound concentration 33 μM,,1.076
same,Fold-change determined at compound concentration 100 μM,,1.231
"CCc1ccccc1NC(=O)Cc1c(C(=O)O)[nH]c2ccc(Cl)cc12 [Entry 110, 5-chloro-3-[2-(2-ethylanilino)-2-oxoethyl]-1H-indole-2-carboxylic acid]",Fold-change determined at compound concentration 33 μM,,1.126
same,Fold-change determined at compound concentration 100 μM,,1.298
"Cc1nc[nH]c1CN1CCc2c(c3ccccc3n2C)C1=O [Entry 111, 5-methyl-2-((4-methyl-1H-imidazol-5-yl)methyl)-2,3,4,5-tetrahydro-1H-pyrido[4,3-b]indol-1-one]",Fold-change determined at compound concentration 33 μM,,1.78
same,Fold-change determined at compound concentration 100 μM,,2.308
"CC1=NCCc2c1[nH]c1ccccc21 [Entry 113, 1-Methyl-4,9-dihydro-3H-beta-carboline]",Fold-change determined at compound concentration 33 μM,,1.202
same,Fold-change determined at compound concentration 100 μM,,1.674
"COc1ccc2c(c1)[nH]c1c(C)nccc12 [Entry 114, 7-Methoxy-1-methyl-9H-pyrido[3,4-b]indole]",Fold-change determined at compound concentration 33 μM,,1.1
same,Fold-change determined at compound concentration 100 μM,,1.342
"Cc1cc(C)c2c(=O)cc(C(=O)Nc3ccc(S(=O)(=O)Nc4onc(C)c4C)cc3)oc2c1 [Entry 115, N-[4-[(3,4-dimethyl-1,2-oxazol-5-yl)sulfamoyl]phenyl]-5,7-dimethyl-4-oxochromene-2-carboxamide]",Fold-change determined at compound concentration 33 μM,,1.316
same,Fold-change determined at compound concentration 100 μM,,1.777
"Cc1ccc2c(=O)cc(C(=O)Nc3nnc(C)s3)oc2c1 [Entry 116, 7-methyl-N-(5-methyl-1,3,4-thiadiazol-2-yl)-4-oxo-4H-chromene-2-carboxamide]",Fold-change determined at compound concentration 33 μM,,1.459
same,Fold-change determined at compound concentration 100 μM,,2.138
"Cc1cccc2c(=O)cc(C(=O)Nc3nnc(C(C)C)s3)oc12 [Entry 117, 8-methyl-4-oxo-N-(5-propan-2-yl-1,3,4-thiadiazol-2-yl)chromene-2-carboxamide]",Fold-change determined at compound concentration 33 μM,,1.177
same,Fold-change determined at compound concentration 100 μM,,1.444
"O=c1oc2cc(O)c(O)cc2c2c1CCCC2 [Entry 118, 2,3-dihydroxy-7,8,9,10-tetrahydro-6H-benzo[c]-chromen-6-one]",Fold-change determined at compound concentration 33 μM,,1.195
same,Fold-change determined at compound concentration 100 μM,,1.615
"CCn1cnc2c(=O)oc3ccc(S(=O)(=O)Nc4ccc(OC)cc4)cc3c21 [Entry 119, 1-ethyl-N-(4-methoxyphenyl)-4-oxochromeno[3,4-d]imidazole-8-sulfonamide]",Fold-change determined at compound concentration 33 μM,,1.319
same,Fold-change determined at compound concentration 100 μM,,1.366
"Cc1nnc(NC(=O)c2cc(=O)c3cc(F)ccc3o2)s1 [Entry 120, 6-fluoro-N-(5-methyl-1,3,4-thiadiazol-2-yl)-4-oxo-4H-chromene-2-carboxamide]",Fold-change determined at compound concentration 33 μM,,1.1
same,Fold-change determined at compound concentration 100 μM,,1.381
"CC(C)c1nnc(NC(=O)c2cc(=O)c3ccc(Br)cc3o2)s1 [Entry 121, 7-bromo-4-oxo-N-(5-propan-2-yl-1,3,4-thiadiazol-2-yl)chromene-2-carboxamide]",Fold-change determined at compound concentration 33 μM,,1.118
same,Fold-change determined at compound concentration 100 μM,,1.26
"Cc1cc2oc(C(=O)Nc3nnc(C(C)C)s3)cc(=O)c2cc1C [Entry 122, 6,7-dimethyl-4-oxo-N-(5-propan-2-yl-1,3,4-thiadiazol-2-yl)chromene-2-carboxamide]",Fold-change determined at compound concentration 33 μM,,1.134
same,Fold-change determined at compound concentration 100 μM,,1.377
"CCc1nnc(NC(=O)c2cc(=O)c3cc(C)c(C)cc3o2)s1 [Entry 123, N-(5-ethyl-1,3,4-thiadiazol-2-yl)-6,7-dimethyl-4-oxo-4H-chromene-2-carboxamide]",Fold-change determined at compound concentration 10 μM,10 μM compound,1.211
same,Fold-change determined at compound concentration 33 μM,,1.528
same,Fold-change determined at compound concentration 100 μM,,2.189
